According to publication PMC4885601 (Journal of Medicinal Chemistry, 2016):
Where two headings read alike, the source gives them in different places.

Experiments:
[1] = molecular target: T1, δ-opioid receptor (DOR) (Rattus norvegicus, UniProt P33533); details: cited from earlier work
[2] = tested on: mouse; assay: In vivo warm water tail withdrawal; details: ip, up to 10 mg/kg
[3] = molecular target: κ-opioid receptor (KOR) (Homo sapiens, UniProt P41145); assay: Stimulation of [35S]GTPγS binding at KOR; type: biochemical; details: percent maximal stimulation relative to U69,593 at 10 μM
κ-opioid receptor (KOR), sequence (P41145 whole entry): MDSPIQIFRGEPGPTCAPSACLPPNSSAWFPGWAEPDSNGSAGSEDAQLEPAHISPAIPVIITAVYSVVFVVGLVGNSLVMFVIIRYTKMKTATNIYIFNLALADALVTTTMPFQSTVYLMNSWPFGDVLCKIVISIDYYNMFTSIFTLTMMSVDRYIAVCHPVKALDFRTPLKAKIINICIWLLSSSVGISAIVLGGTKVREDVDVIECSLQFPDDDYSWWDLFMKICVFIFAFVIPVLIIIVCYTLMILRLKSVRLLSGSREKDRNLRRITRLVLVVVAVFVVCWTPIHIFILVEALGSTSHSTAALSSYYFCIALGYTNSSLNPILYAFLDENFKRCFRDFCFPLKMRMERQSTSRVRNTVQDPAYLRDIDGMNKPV

[4] = molecular target: T1, δ-opioid receptor (DOR); assay: Stimulation of [35S]GTPγS binding at DOR; type: biochemical; details: percent maximal stimulation relative to DPDPE at 10 μM
[5] = tested on: mouse; details: WWTW assay; cited from earlier work

T1 sequence (P33533 whole entry): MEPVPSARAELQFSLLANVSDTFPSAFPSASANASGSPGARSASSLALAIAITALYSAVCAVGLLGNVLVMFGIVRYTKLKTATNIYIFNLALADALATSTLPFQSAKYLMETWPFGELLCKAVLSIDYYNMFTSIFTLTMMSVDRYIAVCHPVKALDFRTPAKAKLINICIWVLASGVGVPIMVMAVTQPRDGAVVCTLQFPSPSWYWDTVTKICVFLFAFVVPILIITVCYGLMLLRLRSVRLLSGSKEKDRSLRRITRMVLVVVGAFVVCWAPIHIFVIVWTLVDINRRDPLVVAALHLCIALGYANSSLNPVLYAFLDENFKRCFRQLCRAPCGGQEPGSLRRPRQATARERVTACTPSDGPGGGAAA

CC(=O)N1CC[C@@H](NC(=O)[C@@H](N)Cc2c(C)cc(O)cc2C)c2cc(Cc3ccccc3)ccc21 [4b, (S)-N-((R)-1-Acetyl-6-benzyl-1,2,3,4-tetrahydroquinolin-4-yl)-2-amino-3-(4-hydroxy-2,6-dimethylphenyl)propanamide]
% stimulation DOR [1]: 26%

Cc1cc(O)cc(C)c1C[C@H](N)C(=O)N[C@@H]1CCN(C(=O)C2CC2)c2ccc(Cc3ccccc3)cc21 [4f, (S)-2-Amino-N-((R)-6-benzyl-1-(cyclopropanecarbonyl)-1,2,3,4-tetrahydroquinolin-4-yl)-3-(4-hydroxy-2,6-dimethylphenyl)propanamide]
antinociception in the WWTW assay [2]: partial antinociception

Cc1cc(O)cc(C)c1C[C@H](N)C(=O)N[C@@H]1CCN(C(=O)C2CCC2)c2ccc(Cc3ccccc3)cc21 [4g, (S)-2-Amino-N-((R)-6-benzyl-1-(cyclobutanecarbonyl)-1,2,3,4-tetrahydroquinolin-4-yl)-3-(4-hydroxy-2,6-dimethylphenyl)propanamide]
% stimulation KOR [3]: no efficacy

COC(=O)N1CC[C@@H](NC(=O)[C@@H](N)Cc2c(C)cc(O)cc2C)c2cc(Cc3ccccc3)ccc21 [4h, Methyl (R)-4-((S)-2-Amino-3-(4-hydroxy-2,6-dimethylphenyl)propanamido)-6-benzyl-3,4-dihydroquinoline-1(2H)-carboxylate]
antinociception in the WWTW assay [2]: full in vivo antinociception

Cc1cc(O)cc(C)c1C[C@H](N)C(=O)N[C@@H]1CCN(C(=O)c2ccccc2)c2ccc(Cc3ccccc3)cc21 [4j, (S)-2-Amino-N-((R)-1-benzoyl-6-benzyl-1,2,3,4-tetrahydroquinolin-4-yl)-3-(4-hydroxy-2,6-dimethylphenyl)propanamide]
% stimulation DOR [4]: no stimulation

CC(=O)N1CC[C@@H](NC(=O)[C@@H](N)Cc2c(C)cc(O)cc2C)c2cc(Cc3ccc4ccccc4c3)ccc21 [15b, (S)-N-((R)-1-Acetyl-6-(naphthalen-2-ylmethyl)-1,2,3,4-tetrahydroquinolin-4-yl)-2-amino-3-(4-hydroxy-2,6-dimethylphenyl)propanamide]
duration of in vivo antinociception [5]: greater than 3 h
